Source: ChEMBL document CHEMBL1201862, “PubChem BioAssay data set” (2004)
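Five concentrations, 48 hours, 96-well plates. GI50 is the concentration that inhibits growth by half.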 Activity calls are given as the source filed them. No stated cut-off is given here; in the data, active = GI50 up to about 1.1 µM and inactive = higher.

Columns and labels:
Assay in all cases: DTP human tumour cell line panel, 48 h
PC-3 = tested on: PC-3
U-251 = tested on: U-251
LOX IMVI = tested on: LOX IMVI
TK-10 = tested on: TK-10
HOP-62 = tested on: HOP-62
KM12 = tested on: KM12
SF-295 = tested on: SF-295
IGROV-1 = tested on: IGROV-1
NCI-H23 = tested on: NCI-H23
EKVX = tested on: EKVX
DU-145 = tested on: DU-145
MDA-MB-435 = tested on: MDA-MB-435
UACC-62 = tested on: UACC-62
T47D = tested on: T47D
OVCAR-5 = tested on: OVCAR-5
UACC-257 = tested on: UACC-257
RXF 393 = tested on: RXF 393
SR = tested on: SR
A549 = tested on: A549
MDA-MB-231 = tested on: MDA-MB-231

Measured: GI50

Nc1nn2c(=O)c3ccccc3nc2s1
inactive: PC-3 > 100 µM | U-251 > 100 µM | LOX IMVI 17.5 µM | TK-10 > 100 µM | HOP-62 > 100 µM | KM12 > 100 µM | SF-295 > 100 µM | IGROV-1 65.5 µM | NCI-H23 28.4 µM | EKVX > 100 µM | DU-145 > 100 µM | MDA-MB-435 > 100 µM | UACC-62 > 100 µM | T47D 87.3 µM | OVCAR-5 > 100 µM | UACC-257 > 100 µM | RXF 393 > 100 µM | SR 20.5 µM | A549 > 100 µM

CC1(C)CC(=O)C(CC2C(=O)CCCC2=O)C(=O)C1
inactive: U-251 > 100 µM | LOX IMVI > 100 µM | TK-10 > 100 µM | HOP-62 > 100 µM | KM12 > 100 µM | SF-295 > 100 µM | IGROV-1 > 100 µM | NCI-H23 > 100 µM | EKVX > 100 µM | UACC-62 > 100 µM | OVCAR-5 > 100 µM | UACC-257 > 100 µM | RXF 393 > 100 µM | SR > 100 µM | A549 > 100 µM

COc1cc(C2[C@H]3C(=O)N(c4ccc(Cc5ccc(N6C(=O)[C@@H]7ON(c8ccccc8)C(c8cc(OC)c(OC)c(OC)c8)[C@@H]7C6=O)cc5)cc4)C(=O)[C@H]3ON2c2ccccc2)cc(OC)c1OC (some centres not stated)
inactive: U-251 > 100 µM | LOX IMVI > 100 µM | TK-10 > 100 µM | HOP-62 > 100 µM | KM12 > 100 µM | SF-295 > 100 µM | IGROV-1 > 100 µM | NCI-H23 > 100 µM | EKVX > 100 µM | UACC-62 95.3 µM | OVCAR-5 > 100 µM | UACC-257 > 100 µM | RXF 393 > 100 µM | SR > 100 µM | A549 > 100 µM

CCc1cc2c(oc3c4ccccc4ccc23)c(=O)[nH]1
inactive: PC-3 > 10 µM | U-251 > 10 µM | LOX IMVI > 10 µM | TK-10 > 10 µM | KM12 > 10 µM | SF-295 > 10 µM | IGROV-1 > 10 µM | NCI-H23 > 10 µM | EKVX > 10 µM | DU-145 > 10 µM | MDA-MB-435 > 10 µM | UACC-62 > 10 µM | OVCAR-5 > 10 µM | UACC-257 > 10 µM | RXF 393 > 10 µM | SR > 10 µM | A549 > 10 µM

COc1cc2c(c(OC)c1OC)C(=O)CC2N (configuration not stated)
inactive: PC-3 > 100 µM | U-251 > 100 µM | LOX IMVI > 100 µM | TK-10 > 100 µM | KM12 > 100 µM | SF-295 > 100 µM | IGROV-1 > 100 µM | NCI-H23 > 100 µM | EKVX > 100 µM | MDA-MB-435 > 100 µM | UACC-62 > 100 µM | OVCAR-5 > 100 µM | UACC-257 > 100 µM | MDA-MB-231 > 100 µM | A549 > 100 µM

COC(=O)C(=O)C(C(=O)C(=O)Nc1ccccc1C(N)=O)c1nc2ccc([N+](=O)[O-])cc2nc1O (configuration not stated)
inactive: U-251 > 100 µM | LOX IMVI > 100 µM | TK-10 > 100 µM | HOP-62 > 100 µM | KM12 > 100 µM | SF-295 > 100 µM | IGROV-1 > 100 µM | NCI-H23 > 100 µM | EKVX > 100 µM | UACC-62 > 100 µM | OVCAR-5 > 100 µM | UACC-257 > 100 µM | RXF 393 > 100 µM | SR > 100 µM | A549 > 100 µM

CC1=NN(c2nc(N)nc(NS(=O)(=O)c3cc(C)c(Cl)cc3S)n2)C(C)(C)C1
inactive: PC-3 > 10 µM | U-251 > 10 µM | LOX IMVI > 10 µM | TK-10 > 10 µM | HOP-62 > 10 µM | KM12 > 10 µM | SF-295 > 10 µM | IGROV-1 > 10 µM | NCI-H23 > 10 µM | EKVX > 10 µM | DU-145 > 10 µM | T47D > 10 µM | OVCAR-5 > 10 µM | UACC-257 > 10 µM | RXF 393 > 10 µM | SR > 10 µM | A549 > 10 µM

CC1=Nc2c(C#N)ncn2N=C(C)C1
inactive: PC-3 > 100 µM | U-251 > 100 µM | LOX IMVI > 100 µM | TK-10 > 100 µM | HOP-62 > 100 µM | KM12 > 100 µM | SF-295 > 100 µM | IGROV-1 > 100 µM | NCI-H23 > 100 µM | DU-145 > 100 µM | MDA-MB-435 > 100 µM | UACC-62 > 100 µM | OVCAR-5 > 100 µM | UACC-257 > 100 µM | RXF 393 > 100 µM | SR > 100 µM | MDA-MB-231 > 100 µM | A549 > 100 µM

COC1OC(C(=O)O)C2OC(C)(C)OC12 (configuration not stated)
inactive: PC-3 > 100 µM | U-251 > 100 µM | LOX IMVI > 100 µM | TK-10 > 100 µM | HOP-62 > 100 µM | KM12 > 100 µM | SF-295 > 100 µM | IGROV-1 > 100 µM | NCI-H23 > 100 µM | EKVX > 100 µM | DU-145 > 100 µM | MDA-MB-435 > 100 µM | UACC-62 > 100 µM | OVCAR-5 > 100 µM | UACC-257 > 100 µM | RXF 393 > 100 µM | SR > 100 µM | MDA-MB-231 > 100 µM | A549 > 100 µM

CN(C)CC1CCCCCCCCCCCCC(CN(C)C)C1=O (configuration not stated)
inactive: U-251 14.3 µM | LOX IMVI 8.43 µM | TK-10 14.7 µM | HOP-62 16.4 µM | KM12 11.1 µM | SF-295 15.8 µM | IGROV-1 17.3 µM | NCI-H23 17.7 µM | EKVX 22.6 µM | UACC-62 13.3 µM | OVCAR-5 16.7 µM | UACC-257 16.3 µM | RXF 393 11.2 µM | SR 1.46 µM | A549 15.5 µM

COC1O[C@@H]2CCN3C(=O)[C@@H](OC(=O)c4ccc([N+](=O)[O-])cc4)[C@H]1C23 (some centres not stated)
inactive: U-251 > 100 µM | LOX IMVI > 100 µM | TK-10 > 100 µM | HOP-62 > 100 µM | KM12 > 100 µM | SF-295 > 100 µM | IGROV-1 > 100 µM | NCI-H23 > 100 µM | EKVX > 100 µM | DU-145 > 100 µM | MDA-MB-435 > 100 µM | UACC-62 > 100 µM | T47D > 100 µM | OVCAR-5 > 100 µM | UACC-257 > 100 µM | RXF 393 > 100 µM | SR > 100 µM | MDA-MB-231 > 100 µM | A549 > 100 µM

CN1CNc2nc(N)n(C)c(=O)c2C1
inactive: U-251 > 10 µM | TK-10 > 10 µM | KM12 > 10 µM | SF-295 > 10 µM | IGROV-1 > 10 µM | NCI-H23 > 10 µM | EKVX > 10 µM | DU-145 > 10 µM | MDA-MB-435 > 10 µM | UACC-62 > 10 µM | OVCAR-5 > 10 µM | UACC-257 > 10 µM | RXF 393 > 10 µM | SR > 10 µM | A549 > 10 µM

COc1ccc(/C=C\c2cc(OC)c(OC)c(OC)c2)cc1OCC(=O)O
inactive: PC-3 5.5 µM | U-251 5.96 µM | LOX IMVI 12.2 µM | TK-10 > 97.3 µM | HOP-62 8.36 µM | KM12 5.86 µM | SF-295 12.7 µM | IGROV-1 46.8 µM | NCI-H23 3.9 µM | EKVX > 96.8 µM | DU-145 6.46 µM | MDA-MB-435 1.72 µM | UACC-62 4.99 µM | OVCAR-5 > 100 µM | UACC-257 5.61 µM | RXF 393 6.15 µM | SR 3.89 µM | MDA-MB-231 18 µM | A549 24.8 µM

CC(=O)OC1CC2C(C)(C)OC(=O)CC(OC(C)=O)[C@]2(C)C2CCC3(C)C(=CCC3c3ccoc3)[C@]12C (some centres not stated)
inactive: U-251 37.6 µM | LOX IMVI 28.7 µM | TK-10 49 µM | HOP-62 24 µM | KM12 30.6 µM | SF-295 18 µM | IGROV-1 24.5 µM | NCI-H23 27.2 µM | EKVX 15.5 µM | UACC-62 22.2 µM | OVCAR-5 32.8 µM | RXF 393 24 µM | SR 8.15 µM | A549 19.4 µM

COC(=O)CCC(=O)CC1CC(=O)C2CCCN12 (configuration not stated)
inactive: U-251 > 100 µM | LOX IMVI > 100 µM | TK-10 > 100 µM | HOP-62 > 100 µM | KM12 > 100 µM | SF-295 > 100 µM | IGROV-1 > 100 µM | NCI-H23 > 100 µM | EKVX > 100 µM | UACC-62 > 100 µM | OVCAR-5 > 100 µM | UACC-257 > 100 µM | RXF 393 > 100 µM | SR > 100 µM | A549 > 100 µM

CCCN1C(=O)CNC(=O)c2[nH]cnc21
inactive: U-251 > 100 µM | LOX IMVI > 100 µM | TK-10 > 100 µM | HOP-62 > 100 µM | KM12 > 100 µM | SF-295 > 100 µM | IGROV-1 > 100 µM | NCI-H23 > 100 µM | EKVX > 100 µM | UACC-62 48.3 µM | OVCAR-5 > 100 µM | UACC-257 > 100 µM | RXF 393 > 100 µM | SR > 100 µM | A549 > 100 µM
